Paper PMC5374420, “In Search of Small Molecule Inhibitors Targeting the Flexible CK2 Subunit Interface” (Pharmaceuticals, 2017)
Where a SMILES comes first, the peptide text is derived from it. Bridges are numbered along the chain shown (N, C = ends).

Legend:
786-0 = test: Cell death of cancerous cell line; assay type: cell-based
CK2α = biological target: T1, CK2α (Homo sapiens, UniProt P68400); test: Thermal shift assay in cell lysates; assay type: binding
T1 construct: endogenous in cells; host or cells: MCF-10A (CK2β-silenced by pLKO1 lentiviral shRNA; WT as comparison)
T1 sequence (P68400 whole entry): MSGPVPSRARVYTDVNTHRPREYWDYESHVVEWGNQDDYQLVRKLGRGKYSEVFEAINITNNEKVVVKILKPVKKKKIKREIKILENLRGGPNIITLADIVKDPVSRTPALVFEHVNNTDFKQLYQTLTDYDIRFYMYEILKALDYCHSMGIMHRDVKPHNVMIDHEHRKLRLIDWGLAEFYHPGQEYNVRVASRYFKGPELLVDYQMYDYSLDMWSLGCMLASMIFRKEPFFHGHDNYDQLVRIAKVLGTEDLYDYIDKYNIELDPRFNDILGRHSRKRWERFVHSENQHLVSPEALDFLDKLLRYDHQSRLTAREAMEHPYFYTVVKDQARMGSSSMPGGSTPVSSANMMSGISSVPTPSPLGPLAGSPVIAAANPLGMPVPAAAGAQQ
Protocol: Thermal shift assay (TSA) is based on the biophysical principle of ligand-induced thermal stabilization of target proteins. This assay can be used to detect protein–ligand interactions in complex cell extracts. Therefore, we have generated thermal melting curves from cell extracts, in which the extent of CK2 unfolding was measured. The assays were performed on WT or CK2β-depleted MCF-10A cell extracts incubated with 50 µM of TAT or TAT-Pc 13 and exposed to increasing temperatures.
Figure 5 Thermal shift assay in cell lysates. CK2β-depleted MCF-10A cell lysates were treated with 50 µM TAT or TAT-Pc 13 (A), or with PBS (Phosphate-buffered saline) or CK2β (B) for 30 min at room temperature. The respective lysates were divided into 20 µL aliquots and heated individually at different temperatures for 3 min. After centrifugation, the supernatants were assayed for CK2 activity with the CK2β-independent peptide substrate. Representative data shown from two independent experiments in duplicate.
CK2β-depleted MCF-10A cell lysates prepared in 50 mM Tris-HCl pH 7.5, 150 mM NaCl, and 2% glycerol supplemented with Complete Protease Inhibitor Cocktail (Sigma, #P8340) were divided into four aliquots with two being treated with 50 µM TAT or […] and the other two aliquots with CK2β or PBS (control). […]

MDA MB-231 = test: Cell death of cancerous cell line, PrestoBlue assay; assay type: cell-based; settings: 6 h, increasing concentrations (Figure S1)
Protocol: (§1) Alternatively, cell viability was measured using the PrestoBlue® assay (Invitrogen, Carlsbad, CA, USA). The microtiter plates containing the treated cells were incubated for 1 h with 10 µL PrestoBlue. The fluorescence was recorded at 580 nm using a FluoStar Optima plate reader (BMG LabTech, Ortenberg, Germany).
(§2) Supplementary Materials: In Search of Small
(§3) Molecule Inhibitors Targeting the Flexible CK2
(§4) Benoit Bestgen, Zakia Belaid-Choucair, Thierry Lomberget, Marc Le Borgne, Odile Filhol […]
(§5) Figure S1. Cellular effects of TAT-Pc 13. (A) MDA MB-231 cells (⦁-⦁) or HeLa cells (○-○) were incubated for 6 h with increasing concentrations of TAT-Pc 13 and cell death was measured using the PrestoBlue assay as described in Material and Methods; (B) 786-O cells were treated for 12 h with increasing concentrations of CX-4945, lysed and analyzed by Western blot; (C) 786-O cells were treated with 20 µM TAT-Pc 13 or 5 µM CX-4945 and immunostained for p21 expression.
(§6) Figure 2. Inhibition of TAT-Pc-induced cell death. MCF-10A cells were pre-treated in the absence (CTRL) or presence of 20 µM z-VAD or 30 µM Necrostatin-1 or 20 µM z-VAD + 30 µM Necrostatin-1 for 5 h and then incubated for 4 h with 25 µM random TAT-Pc 13 or TAT-Pc 13 and cell viability was evaluated as in Figure 8A. […]

HeLa = test: as above; assay type: cell-based; settings: 6 h, increasing concentrations (Figure S1)
Protocol: as §1, §2, §3, §4, §5, §6

[1] = tested on: p21 Thr145 phosphorylation, survivin expression, AKT activation; test: Western blot of intracellular events (AKT, phospho-p21 Thr145, survivin); assay type: cell-based
Protocol: This was confirmed using the LIVE&DEAD^TM cell viability assay that provides a visual readout of cell integrity (Figure 8A lower panel). This cellular effect was also analyzed after treatment of WT or CK2β-depleted MCF-10A cells with increasing concentrations of TAT-Pc 13. TAT-Pc 13 caused a cell death in both cell types, which was already detectable at a concentration of 25 µM and became massive at 50–60 µM (Figure 8B). […] In order to investigate the intracellular events induced by TAT-Pc 13, MCF-10A cells were incubated with increasing concentrations of TAT-Pc 13 and analyzed by Western blot.
Figure 8 Cellular effects of TAT-Pc 13. (A) MCF-10A cells were incubated with 25 µM of TAT-Pc 13 for 3 h and imaged with phase microscopy (upper panel) or with increasing concentrations of TAT-Pc 13 for 2 h and cell viability was evaluated using the LIVE&DEAD™ assay. Live cells fluoresce bright green (530 nm), whereas dead cells fluoresce red-orange (645 nm) (lower panel, scale bare: 100 µm); (B) WT (○-○) or CK2β-depleted (●-●) MCF-10A cells were incubated for 4 h with increasing concentrations of TAT-Pc 13 and cell death was evaluated using the LIVE&DEAD™ assay recording fluorescence at 645 nm. Representative data shown from two independent experiments in duplicate; (C) MCF-10A cells were pre-treated in the absence or presence of 20 µM z-VAD for 5 h and then incubated for 4 h with 25 µM random TAT-Pc 13 or TAT-Pc 13 and cell viability was evaluated as in (A) (scale bare: 100 µm); and (D) intracellular events induced by increasing concentrations of TAT-Pc 13. After 12 h of treatment, 786-O cells were lysed and analyzed by Western blot. TEXT PRINTED IN THE PICTURE: (B) TAT-Pc 13: TAT-Pc 13 (μM): 48; TAT-Pc 13 (μM): 60 DOUBTS OF THE COPYIST ABOUT THIS PICTURE: Panel B: 48 and 60 are printed in red at the x axis, where dashed lines drop from the two curves at about 50 on the Cell death (%) axis. No measure name (e.g. IC50) is printed with them. […]

CC[C@H](C)[C@@H]1NC(=O)[C@H](CCCCN)NC(=O)[C@H](Cc2ccccc2)NC(=O)CNC(=O)[C@H](Cc2ccc(O)cc2)NC(=O)[C@H](CC(C)C)NC(=O)[C@H](CCCNC(=N)N)NC(=O)CNC(=O)CNC(=O)[C@@H](NC(=O)[C@H](CCC(N)=O)NC(=O)[C@@H]2CCCN2C(=O)[C@@H]2CCCN2C(=O)[C@H](CCCNC(=N)N)NC(=O)[C@H](CCCNC(=N)N)NC(=O)[C@H](CCCNC(=N)N)NC(=O)[C@H](CCC(N)=O)NC(=O)[C@H](CCCNC(=N)N)NC(=O)[C@H](CCCNC(=N)N)NC(=O)[C@H](CCCCN)NC(=O)[C@H](CCCCN)NC(=O)[C@H](CCCNC(=N)N)NC(=O)CN)CCCCNC(=O)CNC(=O)CNC(=O)[C@H](Cc2c[nH]cn2)NC1=O [TAT-Pc 13] (H-GRKKRRQRRRPPQKGGRLYGFKIHGG; lactam 14-C; N-terminus assumed)
induction of cell death (786-0): induce cell death
shift in the melting curves (CK2α; CK2β-depleted MCF-10A cell extracts, 50 µM peptide, 30 min at room temperature, 3 min heating, read-out CK2 activity): 4 °C
thermal shift in WT cell extracts (CK2α; extracts from WT MCF-10A cells, not shown): no thermal shift
induction of cell death (MDA MB-231): induce cell death
induction of cell death (HeLa): induce cell death
EC50 ([1]; 12 h treatment, text says MCF-10A cells, Figure 8D legend says 786-O cells, read-out: EC50, phosphorylation of p21 on Thr145 and decrease of survivin expression): 15 µM
AKT activation ([1]; increasing concentrations, 12 h): no sign of AKT activation
